What was measured:
[1] = tested on: human ovary adenocarcinoma cells, OVCAR-3 cells; test: Survival of nude mice after intraperitoneal implant of OVCAR-3 neoplastic cells; format: in vivo, immunodepressed nude mice (Athymic CD-1); conditions: 3 intraperitoneal doses (days 6, 13, 20): 20 mg/kg Taxol or 125 mg/kg HYTAD; 5 animals per group
Text: For this experiment, we used human ovary adenocarcinoma cells, OVCAR-3 cells, in immunodepressed nude mice belonging to the Athymic CD-1 species.
Each mouse was inoculated by the intraperitoneal route with 5×10^6 cancer cells.
The molecular weight of the HA used for synthesis of this new drug was 200,000 Da (see Example 7 for details of its preparation). Five animals were used for this drug too.
Treated animals: 10 animals were first inoculated with OVCAR-3 cells.
The survival curve was calculated from the date of intervention to the 92nd day after inoculation of the cancer cells into the peritoneum.

[2] = tested on: MCF-7 human breast cancer cell line; test: In vitro cytotoxicity, MTT test, MCF-7; format: cell-based; conditions: MCF7, 72 h, read-out: IC50 (concentration of drug necessary to inhibit cell growth by 50%)
Method: (§1) Four cell lines of human breast cancer were used.
(§2) 1) the test cell line is plated at a concentration of 3,000 cells per well, on a flat-bottomed, 96-well plate;
(§3) 2) 24 hours later, the cells are supplemented with the test solutions suitably diluted in culture medium;
(§4) This is possible because mitochondrial dehydrogenase is able to reduce the tetrazolium salts (yellow) into blue formazan crystals. The greater or lesser intensity of colour is assessed by spectrophotometry (Dezinot, F. et al., J. Immunol. Methods, 1986, 22 (89): 271-277).

[3] = tested on: MDA-MB-231 human breast cancer cell line; test: In vitro cytotoxicity, MTT test, MDA-MB-231; format: cell-based; conditions: MDA-MB-231, 72 h, read-out: IC50 (concentration of drug necessary to inhibit cell growth by 50%)
Method: as §1, §2, §3, §4

[4] = tested on: SKBR-3 human breast cancer cell line; test: In vitro cytotoxicity, MTT test, SKBR-3; format: cell-based; conditions: SK-BR-3, 72 h, read-out: IC50 (concentration of drug necessary to inhibit cell growth by 50%)
Method: as §1, §2, §3, §4

[5] = intravenous infusion of paclitaxel-Cremophor EL in spite of pre-medication; cited from earlier work

In the case of `CC(=O)O[C@H]1C(=O)[C@@]2(C)[C@H]([C@H](OC(=O)c3ccccc3)[C@]3(O)C[C@H](OC(=O)[C@H](O)[C@@H](NC(=O)c4ccccc4)c4ccccc4)C(C)=C1C3(C)C)[C@]1(OC(C)=O)CO[C@@H]1C[C@@H]2O` [Taxol ®, paclitaxel], the “animals that had died on the 92nd day after intervention” value [1] is reported as “none”, the IC50 [2] is reported as 3.5 nM and the IC50 [3] is reported as 0.35 nM. The IC50 [4] was 0.23 nM and the “patients who experience more or less severe adverse reactions” value [5] was “up to 40%”.

From patent US8034795B2, “Taxanes covalently bounded to hyaluronic acid or hyaluronic acid derivatives” (Fidia Farmaceutici S.p.A., priority 2002, dated 2011)
